# Activity calls are given as the source filed them. The calls are words filed in the database; no cut-off is given here.
# Assays:
# [1] = target: T1, Protein cereblon/Phospholipid hydroperoxide glutathione peroxidase GPX4 (Homo sapiens) (UniProt Q96SW2+P36969); assay: PROTAC activity at CRBN/GPX4 in human HT-1080 cells assessed as induction of GPX4 degradation at 1 uM incubated for 24 hrs by Western blot analysis relative to control; format: cell-based
# [2] = target: T1, Protein cereblon/Phospholipid hydroperoxide glutathione peroxidase GPX4 (Homo sapiens); assay: (§1) PROTAC activity at CRBN/GPX4 in human HT-1080 cells assessed as induction of GPX4 degradation incubated for 24 hrs by Western blot analysis; format: cell-based
# [3] = target: Protein cereblon/Phospholipid hydroperoxide glutathione peroxidase GPX4 (Homo sapiens, UniProt P36969+Q96SW2); assay: as §1; format: cell-based
# HT-1080 [4] = assay: Antiproliferative activity against human HT-1080 cells assessed as reduction in cell viability incubated for 24 hrs by MTT assay; format: functional, cell-based; details: HT-1080, 24 h
# [5] = target: T1, Protein cereblon/Phospholipid hydroperoxide glutathione peroxidase GPX4 (Homo sapiens); assay: PROTAC activity at CRBN/GPX4 in human HT-1080 cells assessed as induction of GPX4 degradation at 1 uM by Western blot analysis; format: cell-based; details: time <= 24.0 hrs, TDE = time-dependent effect
# [6] = target: T2, Phospholipid hydroperoxide glutathione peroxidase GPX4 (Homo sapiens, UniProt P36969); assay: Induction of GPX4 degradation in human HT-1080 cells measured after 24 hrs; format: cell-based
# T2 sequence (P36969 whole entry): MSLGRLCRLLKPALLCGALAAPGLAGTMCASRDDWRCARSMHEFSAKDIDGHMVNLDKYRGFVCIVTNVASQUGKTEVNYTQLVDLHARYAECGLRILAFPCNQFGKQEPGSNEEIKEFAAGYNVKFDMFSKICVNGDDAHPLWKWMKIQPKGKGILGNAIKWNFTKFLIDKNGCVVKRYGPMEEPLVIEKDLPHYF
# Calu-1 = assay: Antiproliferative activity against human Calu-1 cells assessed as reduction in cell viability incubated for 24 hrs by MTT assay; format: functional, cell-based; details: Calu-1, 24 h
# [7] = target: T3, Phospholipid hydroperoxide glutathione peroxidase GPX4 (Homo sapiens) (UniProt P36969); assay: Induction of GPX4 degradation in human HT-1080 cells measured after 12 hrs relative to control; format: cell-based
# T3 sequence (whole entry): T2 sequence (P36969 whole entry)
# A-375 = assay: Antiproliferative activity against human A-375 cells assessed as reduction in cell viability incubated for 24 hrs by MTT assay; format: functional, cell-based; details: A-375, 24 h
# HT-1080 [8] = assay: Induction of ferroptosis in human HT-1080 cells assessed as increase in ROS accumulation at 0.3 uM measured at 6 to 12 hrs by fluorescence intensity based flow cytometric analysis; format: functional, cell-based; details: time 6-12 hrs
# [9] = Toxicity in Balb/c nude mouse xenografted with human HT-1080 cells assessed as body weight loss at 3 mg/kg, iv administered once every two days for 10 days; format: organism-based; details: in vivo, 240 h, time 10 day
# [10] = target: T3, Phospholipid hydroperoxide glutathione peroxidase GPX4 (Homo sapiens); assay: Induction of GPX4 degradation in human HT-1080 cells assessed as reduction in GPX4 protein level measured after 6 hrs; format: cell-based
# [11] = Cytotoxicity against HEK293T cells assessed as reduction in cell viability measured after 24 hrs by MTT assay; format: toxicity, cell-based, HEK-293T; details: human
# [12] = Potency index, ratio of test compound IC50 to ML210 IC50 for cytotoxicity against HEK293T cells; format: toxicity, cell-based, HEK-293T; details: human, read-out: Ratio IC50
# [13] = Toxicity in Balb/c nude mouse xenografted with human HT-1080 cells assessed as body weight loss at 5 to 40 mg/kg, iv administered once every two days for 10 days; format: organism-based; details: in vivo, 240 h, dose 5-40 mg/kg, time 10 day
# Mus musculus = assay: In vivo PROTAC activity at CRBN/GPX4 in human HT-1080 cells xenografted in Balb/c nude mouse assessed as reduction in GPX4 level in tumor at 20 mg/kg,iv administered as single dose by immunoblotting analysis; format: functional, organism-based; details: time 6-48 hrs, TDE = time-dependent effect
# [14] = target: T1, Protein cereblon/Phospholipid hydroperoxide glutathione peroxidase GPX4 (Homo sapiens); assay: PROTAC activity at CRBN/GPX4 in human HT-1080 cells assessed as induction of GPX4 degradation at 0.1 uM incubated for 24 hrs by Western blot analysis relative to control; format: cell-based
# [15] = target: T1, Protein cereblon/Phospholipid hydroperoxide glutathione peroxidase GPX4 (Homo sapiens); assay: PROTAC activity at CRBN/GPX4 in human HT-1080 cells assessed as induction of GPX4 degradation at 0.1 uM incubated for 12 hrs by Western blot analysis relative to control; format: cell-based
# HT-1080 [16] = assay: Antiproliferative activity against human HT-1080 cells assessed as reduction in cell viability at 10 uM incubated for 24 hrs in the presence of liproxstin-1 by MTT assay; format: functional, cell-based
# [17] = target: T1, Protein cereblon/Phospholipid hydroperoxide glutathione peroxidase GPX4 (Homo sapiens); assay: Potency index, ratio of […] EC50 to test compound EC50 for PROTAC activity at CRBN/GPX4 in human HT-1080 cells; format: cell-based
# [18] = target: T1, Protein cereblon/Phospholipid hydroperoxide glutathione peroxidase GPX4 (Homo sapiens); assay: PROTAC activity at CRBN/GPX4 in human HT-1080 cells assessed as induction of GPX4 degradation at 0.3 uM incubated for 24 hrs by Western blot analysis relative to control; format: cell-based
# [19] = target: T1, Protein cereblon/Phospholipid hydroperoxide glutathione peroxidase GPX4 (Homo sapiens); assay: PROTAC activity at CRBN/GPX4 in human HT-1080 cells assessed as induction of GPX4 degradation at 0.1 uM preincubated with MG132 and Baf-A1 for 2 hrs followed by compound addition and measured after 12 hrs by Western blot analysis; format: cell-based
# HT-1080 [20] = assay: Induction of ferroptosis in human HT-1080 cells assessed as cell death at 0.3 uM preincubated with liproxstin-1 for 2 hrs followed by compound addition and measured after 12 hrs by fluorescence intensity based flow cytometric analysis; format: functional
# [21] = target: T1, Protein cereblon/Phospholipid hydroperoxide glutathione peroxidase GPX4 (Homo sapiens); assay: PROTAC activity at CRBN/GPX4 in human HT-1080 cells assessed as induction of GPX4 degradation in the presence of lenalidomide by ligand competition assay; format: cell-based
# [22] = target: T1, Protein cereblon/Phospholipid hydroperoxide glutathione peroxidase GPX4 (Homo sapiens); assay: PROTAC activity at CRBN/GPX4 in human HT-1080 cells assessed as induction of GPX4 degradation in the presence of ML210 by ligand competition assay; format: cell-based
# HT-1080 [23] = assay: Induction of ferroptosis in human HT-1080 cells assessed as increase in ROS accumulation at 0.3 uM measured upto 12 hrs by fluorescence intensity based flow cytometric analysis; format: functional, cell-based
smiles,measurement,setting,value
Cc1onc(C(=O)N2CCN(C(c3ccc(Cl)cc3)c3ccc(OCC(=O)N4CCN(CCCCCCCCCCCCNc5cccc6c5CN(C5CCC(=O)NC5=O)C6=O)CC4)cc3)CC2)c1[N+](=O)[O-] (centres undefined),Activity,[1],32%
Cc1onc(C(=O)N2CCN(C(c3ccc(Cl)cc3)c3ccc(OCC(=O)N4CCN(CCCCCCCCCCCCCCNc5cccc6c5CN(C5CCC(=O)NC5=O)C6=O)CC4)cc3)CC2)c1[N+](=O)[O-] (centres undefined),Activity,[1],< 5%
Cc1onc(C(=O)N2CCN(C(c3ccc(Cl)cc3)c3ccc(OCC(=O)N4CCN(CCCCCCCCCNc5cccc6c5CN(C5CCC(=O)NC5=O)C6=O)CC4)cc3)CC2)c1[N+](=O)[O-] (centres undefined),Activity,[2],Dose-Dependent Effect
same,EC50,[3],0.4 µM
same,Activity,[1],40%
same,IC50,HT-1080 [4],0.3 µM
same,Activity,[5],Tde
Cc1onc(C(=O)N2CCN(C(c3ccc(Cl)cc3)c3ccc(Cl)cc3)CC2)c1[N+](=O)[O-],EC50,[6],0.65 µM
same,IC50,HT-1080 [4],0.1 µM
same,IC50,Calu-1,0.9 µM
same,Activity,[7],> 60%
same,IC50,A-375,0.3 µM
same,Activity,HT-1080 [8],inactive
same,Activity,[9],Toxic
same,Activity,[10],Active
same,IC50 at 24 h,[11],0.2 µM
Cc1onc(C(=O)N2CCN(C(c3ccc(Cl)cc3)c3ccc(OCC(=O)N4CCC(CN5CCN(CCCNc6cccc7c6C(=O)N(C6CCC(=O)NC6=O)C7=O)CC5)CC4)cc3)CC2)c1[N+](=O)[O-] (centres undefined),Activity,[2],Dose-Dependent Effect
same,EC50,[3],0.03 µM
same,selectivity ratio,[12],5
same,Activity,[1],> 78%
same,Activity,[13],Non-Toxic
same,Activity,Mus musculus,Tde
same,Activity,[14],82%
same,IC50,HT-1080 [4],0.1 µM
same,IC50,Calu-1,0.3 µM
same,Activity,[15],> 80%
same,IC50,A-375,0.2 µM
same,Activity,HT-1080 [16],inactive
same,Ratio EC50,[17],22
same,Activity,[18],100%
same,Activity,[19],inactive
same,IC50 at 24 h,[11],1.1 µM
same,Activity,HT-1080 [20],inactive
same,Activity,[21],Active
same,Activity,[5],Tde
same,Activity,[22],Active
same,Activity,HT-1080 [23],Active
Cc1onc(C(=O)N2CCN(C(c3ccc(Cl)cc3)c3ccc(OCC(=O)N4CCN(CCCCCCCCCCCCCNc5cccc6c5CN(C5CCC(=O)NC5=O)C6=O)CC4)cc3)CC2)c1[N+](=O)[O-] (centres undefined),Activity,[1],36%
Cc1onc(C(=O)N2CCN(C(c3ccc(Cl)cc3)c3ccc(OCC(=O)N4CCC(CN5CCN(CCCCNc6cccc7c6C(=O)N(C6CCC(=O)NC6=O)C7=O)CC5)CC4)cc3)CC2)c1[N+](=O)[O-] (centres undefined),Activity,[1],70%
same,Activity,[14],42%
Cc1onc(C(=O)N2CCN(C(c3ccc(Cl)cc3)c3ccc(OCC(=O)N4CCC(CN5CCN(CCCCCNc6cccc7c6C(=O)N(C6CCC(=O)NC6=O)C7=O)CC5)CC4)cc3)CC2)c1[N+](=O)[O-] (centres undefined),Activity,[1],> 80%
same,Activity,[14],33%
Cc1onc(C(=O)N2CCN(C(c3ccc(Cl)cc3)c3ccc(OCC(=O)N4CCC(CN5CCC(CN6CCN(c7cccc8c7C(=O)N(C7CCC(=O)NC7=O)C8=O)CC6)CC5)CC4)cc3)CC2)c1[N+](=O)[O-] (centres undefined),Activity,[1],30%
same,IC50,HT-1080 [4],1 µM
Cc1onc(C(=O)N2CCN(C(c3ccc(Cl)cc3)c3ccc(OCC(=O)N4CCC(CN5CCN(CCCCCCNc6cccc7c6C(=O)N(C6CCC(=O)NC6=O)C7=O)CC5)CC4)cc3)CC2)c1[N+](=O)[O-] (centres undefined),Activity,[1],> 80%
same,Activity,[14],50%
Cc1onc(C(=O)N2CCN(C(c3ccc(Cl)cc3)c3ccc(OCC(=O)N4CCN(CCCCCCCCCCNc5cccc6c5CN(C5CCC(=O)NC5=O)C6=O)CC4)cc3)CC2)c1[N+](=O)[O-] (centres undefined),Activity,[1],43%
Cc1onc(C(=O)N2CCN(C(c3ccc(Cl)cc3)c3ccc(OCC(=O)N4CCC(CN5CCC(CN6CCC(Nc7cccc8c7C(=O)N(C7CCC(=O)NC7=O)C8=O)CC6)CC5)CC4)cc3)CC2)c1[N+](=O)[O-] (centres undefined),Activity,[1],25%
same,IC50,HT-1080 [4],1.2 µM
Cc1onc(C(=O)N2CCN(C(c3ccc(Cl)cc3)c3ccc(OCC(=O)N4CCN(CCCCCCCNc5cccc6c5CN(C5CCC(=O)NC5=O)C6=O)CC4)cc3)CC2)c1[N+](=O)[O-] (centres undefined),Activity,[1],13%
Cc1onc(C(=O)N2CCN(C(c3ccc(Cl)cc3)c3ccc(OCC(=O)N4CCC(CN5CCN(CCNc6cccc7c6C(=O)N(C6CCC(=O)NC6=O)C7=O)CC5)CC4)cc3)CC2)c1[N+](=O)[O-] (centres undefined),Activity,[1],> 80%
same,Activity,[14],36%
Cc1onc(C(=O)N2CCN(C(c3ccc(Cl)cc3)c3ccc(OCC(=O)N4CCN(CCCCCCCCNc5cccc6c5CN(C5CCC(=O)NC5=O)C6=O)CC4)cc3)CC2)c1[N+](=O)[O-] (centres undefined),Activity,[1],36%
Cc1onc(C(=O)N2CCN(C(c3ccc(Cl)cc3)c3ccc(OCC(=O)N4CCN(CCCCCCCCCCCNc5cccc6c5CN(C5CCC(=O)NC5=O)C6=O)CC4)cc3)CC2)c1[N+](=O)[O-] (centres undefined),Activity,[1],54%

# Source: ChEMBL document CHEMBL5325436, “Discovery of ML210-Based glutathione peroxidase 4 (GPX4) degrader inducing ferroptosis of human cancer cells” (Eur J Med Chem, 2023)
